The source of these data is PubChem BioAssay (NCI).

Some test systems named below: HT29 colon; NCI-H522 lung; T-47D breast; HCC-2998 colon; NCI/ADR-RES ovarian; IGROV1 ovarian; HCT-15 colon; ACHN renal; RPMI-8226 leukemia; OVCAR-8 ovarian.
Holding throughout (experiment): growth of human tumour cells (NCI), 48 h

Several values for one entry are separate records, joined by “and”; a condition that tells them apart may be missing. Identical values can stand only once.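 Growth conditions: 96-well plates. Treatment: test compound, 48 hours, 5 concentrations. Analysis: linear interpolation between bracketing concentrations; unreached endpoints set to highest concentration. Abbreviation: GI50, concentration required for 50% inhibition of growth. TGI: concentration producing complete growth inhibition.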

In the case of `CC(=O)C1=C(O)C=C2Oc3c(C(=O)/C=C/c4cc(C(F)(F)F)cc(C(F)(F)F)c4)c(O)c(C)c(O)c3[C@]2(C)C1=O`, the GI50 in the assay on HT29 colon was 0.535 µM; in the assay with NCI-H522 lung it was 0.38 µM; with T-47D breast it was 0.385 µM; in the assay on HCC-2998 colon it was 1.53 µM; in the assay on NCI/ADR-RES ovarian it was 0.5 µM; in the assay on IGROV1 ovarian, 0.671 µM. Besides, the GI50 is 0.462 µM with HCT-15 colon, 0.552 µM in the assay on ACHN renal, 0.442 µM with RPMI-8226 leukemia and 0.496 µM in the assay with OVCAR-8 ovarian. The TGI with HT29 colon is 1.71 µM; in the assay on NCI-H522 lung, 1.22 µM; in the assay on T-47D breast, 1.37 µM; in the assay on HCC-2998 colon, 3.63 µM; in the assay on NCI/ADR-RES ovarian, 2.93 µM; in the assay with IGROV1 ovarian, 8.83 µM. Also, the TGI came out at 2.54 µM in the assay with HCT-15 colon, 2.26 µM in the assay on ACHN renal, 1.28 µM with RPMI-8226 leukemia and 1.91 µM with OVCAR-8 ovarian.
Turning to `Cc1ccccc1NC(=S)Nc1ccccn1`, the GI50 in the assay with HT29 colon was above 100 µM; in the assay with NCI-H522 lung, above 100 µM; in the assay with T-47D breast, 55.7 µM; with HCC-2998 colon it was above 100 µM; with NCI/ADR-RES ovarian, above 100 µM; in the assay on IGROV1 ovarian it was above 100 µM. Moreover, the GI50 with HCT-15 colon is above 100 µM; with ACHN renal, above 100 µM; with RPMI-8226 leukemia, 62.7 µM; in the assay with OVCAR-8 ovarian, above 100 µM. The TGI in the assay with HT29 colon, in the assay with NCI-H522 lung, in the assay on T-47D breast, in the assay on HCC-2998 colon, in the assay with NCI/ADR-RES ovarian and in the assay with IGROV1 ovarian was above 100 µM in each case. Besides, the TGI in the assay with HCT-15 colon, in the assay on ACHN renal, in the assay on RPMI-8226 leukemia and in the assay with OVCAR-8 ovarian was above 100 µM in each case.
With `Cc1c2cc[nH]c(=O)c2c(C)c2c1[nH]c1cc(OCCN3CCN(C)CC3)ccc12`, the GI50 was 0.432 µM in the assay with HT29 colon; 0.718 µM in the assay with NCI-H522 lung; 0.782 µM with T-47D breast; 1.26 µM in the assay with HCC-2998 colon; 3.37 µM with NCI/ADR-RES ovarian; 0.799 µM in the assay on IGROV1 ovarian. In addition, the GI50 was 1.88 µM with HCT-15 colon, 0.473 µM in the assay with ACHN renal, 1.63 µM with RPMI-8226 leukemia and 0.457 µM with OVCAR-8 ovarian. For the same molecule, the TGI in the assay with HT29 colon amounted to 2.03 µM; in the assay with NCI-H522 lung, 2.76 µM; with T-47D breast, 15.2 µM; in the assay with HCC-2998 colon, 7.24 µM; in the assay on NCI/ADR-RES ovarian, 16.3 µM; with IGROV1 ovarian, 7.59 µM. The TGI with HCT-15 colon amounted to 12 µM; in the assay with ACHN renal, 3.83 µM; with RPMI-8226 leukemia it was 5 µM; with OVCAR-8 ovarian, 6.08 µM.
On to `CC(=O)N1CCN(C2=Nc3ccccc3CO2)C1=S`, for which the GI50 with HT29 colon was 89.6 µM; with NCI-H522 lung it was 49.2 µM; with T-47D breast it was 33 µM; with HCC-2998 colon, 26.9 µM; with NCI/ADR-RES ovarian it was above 100 µM; in the assay with IGROV1 ovarian, 18.3 µM. The GI50 in the assay on HCT-15 colon is 57.8 µM; in the assay with ACHN renal, above 100 µM; in the assay on RPMI-8226 leukemia, 41.4 µM; in the assay with OVCAR-8 ovarian, above 100 µM. Further, the TGI is above 100 µM in the assay on HT29 colon; above 100 µM in the assay on NCI-H522 lung; above 100 µM with T-47D breast; 97.2 µM with HCC-2998 colon; above 100 µM with NCI/ADR-RES ovarian; 58.1 µM in the assay on IGROV1 ovarian. The TGI with HCT-15 colon, with ACHN renal, in the assay on RPMI-8226 leukemia and with OVCAR-8 ovarian was above 100 µM each time.
As to `CC(C)[C@](O)(c1ccc2cc(OC(F)F)c(OC(F)F)cc2c1)c1cn[nH]n1`, the GI50 in the assay on HT29 colon is 16 µM and 20.8 µM; in the assay with NCI-H522 lung, 16.4 µM and 14.8 µM; in the assay on T-47D breast it was 3.73 µM and 15.5 µM; in the assay on HCC-2998 colon it was 18.2 µM and 18.4 µM; in the assay on NCI/ADR-RES ovarian, 20.1 µM and 21.5 µM; with IGROV1 ovarian, 24.6 µM and 17.8 µM. Moreover, the GI50 in the assay on HCT-15 colon was 13.9 µM and 14.4 µM; in the assay with ACHN renal, 25.7 µM and 19.3 µM; in the assay with RPMI-8226 leukemia it was 24.9 µM and 18.2 µM; in the assay with OVCAR-8 ovarian, 29.6 µM and 26.4 µM. Besides, the TGI in the assay with HT29 colon is 36.3 µM and 46.6 µM; in the assay with NCI-H522 lung, 36.5 µM and 35.4 µM; with T-47D breast it was 53.4 µM and 71.1 µM; in the assay on HCC-2998 colon it was 36.3 µM and 34.5 µM; with NCI/ADR-RES ovarian, 52.8 µM and 53.5 µM; in the assay on IGROV1 ovarian, 70.7 µM and 44.5 µM. Moreover, the TGI in the assay on HCT-15 colon is 31.5 µM and 31.8 µM; in the assay with ACHN renal, 93.3 µM and 54 µM; with RPMI-8226 leukemia, 68.4 µM and 53 µM; in the assay with OVCAR-8 ovarian, 81.1 µM and 62.5 µM.
Regarding `COc1ccc2c(c1)C(=O)c1c-2n(CCCN)c(=O)c2ccccc12`, the GI50 in the assay on HT29 colon was below 0.0298 µM; in the assay with NCI-H522 lung it was 0.0123 µM; with T-47D breast it was below 0.0218 µM; in the assay with HCC-2998 colon, 0.164 µM; in the assay with NCI/ADR-RES ovarian, 0.0992 µM; with IGROV1 ovarian it was below 0.0138 µM. The GI50 with HCT-15 colon is 0.0179 µM; with ACHN renal it was below 0.0134 µM; in the assay with RPMI-8226 leukemia it was below 0.0114 µM; with OVCAR-8 ovarian, 0.0113 µM. In addition, the TGI was 0.188 µM in the assay on HT29 colon; 0.505 µM with NCI-H522 lung; 0.109 µM with T-47D breast; 1.18 µM in the assay on HCC-2998 colon; 1.95 µM in the assay on NCI/ADR-RES ovarian; 0.689 µM in the assay with IGROV1 ovarian. For the same molecule, the TGI with HCT-15 colon was determined as 0.265 µM; in the assay on ACHN renal, 0.0408 µM; in the assay with RPMI-8226 leukemia, 0.0316 µM; in the assay on OVCAR-8 ovarian it was 0.162 µM.
Take `COc1ccc(C#Cc2ccccc2C#CCCCCO)cc1`: the GI50 in the assay with HT29 colon is 12.3 µM; in the assay with NCI-H522 lung, 18.6 µM; in the assay on T-47D breast, 22 µM; in the assay on HCC-2998 colon, 17.9 µM; in the assay with NCI/ADR-RES ovarian, 24.4 µM; in the assay on IGROV1 ovarian, 18.8 µM. Also, the GI50 was 16.3 µM in the assay on HCT-15 colon, 21.7 µM in the assay on ACHN renal, 27.3 µM in the assay on RPMI-8226 leukemia and 18.1 µM with OVCAR-8 ovarian. For the same molecule, the TGI in the assay with HT29 colon was 24.8 µM; in the assay on NCI-H522 lung, 34.9 µM; in the assay with T-47D breast, 43.8 µM; in the assay with HCC-2998 colon, 33.3 µM; in the assay on NCI/ADR-RES ovarian, 48.4 µM; in the assay on IGROV1 ovarian it was 34.1 µM. In addition, the TGI in the assay on HCT-15 colon is 29.9 µM; in the assay on ACHN renal, 45 µM; in the assay with RPMI-8226 leukemia, 72.7 µM; in the assay on OVCAR-8 ovarian it was 38.6 µM.
